Consider 35 compounds from US9012443B2 (Amgen Inc., priority 2011, dated 2015).

Each structure is given as a SMILES string. Counter-ions that a name gives are not always drawn.

T1 sequence (Q15858 whole entry): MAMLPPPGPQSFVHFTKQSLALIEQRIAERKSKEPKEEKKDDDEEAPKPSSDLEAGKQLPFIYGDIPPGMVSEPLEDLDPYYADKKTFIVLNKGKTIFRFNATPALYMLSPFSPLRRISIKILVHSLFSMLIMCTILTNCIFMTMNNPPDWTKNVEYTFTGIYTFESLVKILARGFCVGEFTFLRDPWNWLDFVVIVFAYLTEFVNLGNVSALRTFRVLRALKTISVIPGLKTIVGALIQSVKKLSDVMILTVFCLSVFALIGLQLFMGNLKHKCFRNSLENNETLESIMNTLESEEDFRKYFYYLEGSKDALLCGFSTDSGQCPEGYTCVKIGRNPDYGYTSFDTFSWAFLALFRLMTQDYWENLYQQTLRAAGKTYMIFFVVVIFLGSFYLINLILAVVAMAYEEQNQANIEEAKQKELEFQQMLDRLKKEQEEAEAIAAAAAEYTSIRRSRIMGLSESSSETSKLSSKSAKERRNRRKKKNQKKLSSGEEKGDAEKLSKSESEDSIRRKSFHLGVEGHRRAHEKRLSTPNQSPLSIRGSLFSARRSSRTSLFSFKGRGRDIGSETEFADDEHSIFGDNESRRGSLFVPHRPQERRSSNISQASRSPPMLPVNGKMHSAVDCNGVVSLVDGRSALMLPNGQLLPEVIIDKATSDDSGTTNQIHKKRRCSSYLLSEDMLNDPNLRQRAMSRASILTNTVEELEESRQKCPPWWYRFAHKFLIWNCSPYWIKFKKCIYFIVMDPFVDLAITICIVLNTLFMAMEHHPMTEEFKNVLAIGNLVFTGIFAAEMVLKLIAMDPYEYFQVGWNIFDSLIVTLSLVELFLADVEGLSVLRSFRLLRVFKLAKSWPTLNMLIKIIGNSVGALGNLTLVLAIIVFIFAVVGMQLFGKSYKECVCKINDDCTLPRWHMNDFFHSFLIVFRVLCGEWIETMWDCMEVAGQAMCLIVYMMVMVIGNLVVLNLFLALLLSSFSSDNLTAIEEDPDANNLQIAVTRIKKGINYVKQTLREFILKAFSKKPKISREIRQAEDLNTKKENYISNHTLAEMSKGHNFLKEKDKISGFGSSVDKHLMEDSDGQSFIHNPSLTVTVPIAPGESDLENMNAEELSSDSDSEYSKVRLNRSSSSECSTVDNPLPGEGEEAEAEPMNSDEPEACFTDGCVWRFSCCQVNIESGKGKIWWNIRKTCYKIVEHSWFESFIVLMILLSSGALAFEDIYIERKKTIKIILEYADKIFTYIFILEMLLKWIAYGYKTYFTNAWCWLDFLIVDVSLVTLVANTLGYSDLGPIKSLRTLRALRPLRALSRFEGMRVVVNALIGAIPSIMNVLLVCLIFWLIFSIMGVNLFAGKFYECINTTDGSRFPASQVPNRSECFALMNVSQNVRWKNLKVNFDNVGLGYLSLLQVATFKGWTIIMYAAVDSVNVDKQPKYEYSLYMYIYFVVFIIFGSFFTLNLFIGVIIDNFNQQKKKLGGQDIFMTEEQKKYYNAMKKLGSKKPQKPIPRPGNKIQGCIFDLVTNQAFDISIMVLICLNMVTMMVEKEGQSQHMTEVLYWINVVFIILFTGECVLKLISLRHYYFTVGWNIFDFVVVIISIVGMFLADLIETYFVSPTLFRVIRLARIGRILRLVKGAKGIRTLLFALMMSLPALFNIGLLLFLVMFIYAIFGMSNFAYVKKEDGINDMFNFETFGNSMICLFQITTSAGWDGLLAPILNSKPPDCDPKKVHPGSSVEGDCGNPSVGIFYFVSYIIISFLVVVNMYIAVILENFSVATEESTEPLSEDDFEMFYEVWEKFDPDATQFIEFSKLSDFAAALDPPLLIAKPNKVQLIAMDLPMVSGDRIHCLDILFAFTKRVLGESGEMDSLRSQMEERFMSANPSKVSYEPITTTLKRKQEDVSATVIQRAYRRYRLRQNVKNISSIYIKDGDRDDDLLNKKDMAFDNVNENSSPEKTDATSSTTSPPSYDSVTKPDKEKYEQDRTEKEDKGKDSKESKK

The target of one assay is T1, Nav 1.7 (Homo sapiens (Human), UniProt Q15858). The assay is described as follows: Nav 1.7 IWQ in vitro assay (IonWorks Quattro population patch-clamp). It is filed as cell-based. The settings on record: 293 cells stably transfected with Nav 1.7; first part of table; read-out: Nav 1.7 IWQ IC50. The procedure:
Nav 1.7 or Nav 1.5 IWQ In Vitro Assay
293 Cells stably transfected with either Nav 1.7 or Nav 1.5 were recorded in population patch-clamp mode with the IonWorks® Quattro automated electrophysiology system in accordance with the manufacturer's specifications (Molecular Devices, LLC, Sunnyvale, Calif.). Sodium channel currents were measured in response to a train of depolarizations that induced successively greater inactivation.
Cells were then left unclamped for a period of 3 to 8 minutes while a single concentration of test compound was added. Cells were then reclamped and put through the same voltage protocol. Current at the end of the 26th pulse to −20 mV was subtracted from the peak current evoked by the 26th pulse to −20 mV to correct for leak current. Percent block was calculated for each concentration in duplicate, and IC50 curves were fitted to percent block as a function of concentration.
As for `O=S(=O)(Nc1nccs1)c1ccc2c(-c3ccc(C(F)(F)F)cc3C3=CCNCC3)nccc2c1` [Example 70, 1-(2-(1,2,3,6-TETRAHYDROPYRIDIN-4-YL)-4-(TRIFLUOROMETHYL)PHENYL)-N-(THIAZOL-2-YL)ISOQUINOLINE-6-SULFONAMIDE], the IC50 is 15 nM.
Still for that read-out and setting: with `CC1CN(c2cccc3cc(S(=O)(=O)Nc4ncns4)ccc23)CCO1` (stereo not drawn) [Example 16] the figure was 2370 nM.
As to `O=S(=O)(Nc1ncns1)c1ccc2c(-c3ccc(Cl)cc3)nccc2c1` [Example 64, 1-(4-CHLOROPHENYL)-N-(1,2,4-THIADIAZOL-5-YL)ISOQUINOLINE-6-SULFONAMIDE], the IC50 is 770 nM.
The same measure, in the same setting: the figure for `O=S(=O)(Nc1ncns1)c1ccc2c(N3CCOC(c4ccccc4)C3)cccc2c1` (racemic) [Example 14 (mixture of isomers)] is 300 nM.
For the compound `COc1cc(C(F)(F)F)ccc1-c1cccc2cc(S(=O)(=O)Nc3nccs3)ccc12` [Example 41], the IC50 amounted to 290 nM.

The same assay, now with this note: 293 cells stably transfected with Nav 1.7; second part of table; read-out: Nav1.7 IWQ IC50 IP.
With `COc1ccncc1-c1nccc2cc(S(=O)(=O)Nc3ccncn3)ccc12` [Example 170, 1-(4-METHOXYPYRIDIN-3-YL)-N-(PYRIMIDIN-4-YL)ISOQUINOLINE-6-SULFONAMIDE], the IC50 worked out at 2650 nM.
The same measure, in the same setting: the figure for `Cn1ccc2cccc(-c3nccc4cc(S(=O)(=O)Nc5ccncn5)ccc34)c21` [Example 164, 1-(1-METHYL-1H-INDOL-7-YL)-N-(PYRIMIDIN-4-YL)ISOQUINOLINE-6-SULFONAMIDE] is 6610 nM; for `Cc1cc(C#N)ccc1-c1nccc2cc(S(=O)(=O)Nc3ccncn3)ccc12` [Example 159] it is 4830 nM.
Turning to `O=S(=O)(Nc1ccncn1)c1ccc2c(OCC(F)(F)C3CCOCC3)nccc2c1` [Example 299, 1-(2,2-DIFLUORO-2-(TETRAHYDRO-2H-PYRAN-4-YL)ETHOXY)-N-(PYRIMIDIN-4-YL)ISOQUINOLINE-6-SULFONAMIDE], the IC50 was over 10000 nM.

The assay is the same for the next values; noted with them: at […].
As for `Cc1noc(C)c1-c1nccc2cc(S(=O)(=O)Nc3ccncn3)ccc12` [Example 311, 1-(3,5-DIMETHYLISOXAZOL-4-YL)-N-(PYRIMIDIN-4-YL)ISOQUINOLINE-6-SULFONAMIDE], the “Nav1.7 Single Point Data IWQ (at […]) (%)” value is 29%.
The same measure, in the same setting: the figure for `CC(C)(C#N)c1ccccc1-c1nccc2cc(S(=O)(=O)Nc3nccs3)ccc12` [Example 385, 1-(2-(2-CYANOPROPAN-2-YL)PHENYL)-N-(THIAZOL-2-YL)ISOQUINOLINE-6-SULFONAMIDE] is 25.3%.
Still for that read-out and setting: the figure for `O=S(=O)(Nc1ccncn1)c1ccc2c(OCC(F)(F)C3CCOCC3)nccc2c1` [Example 299, 1-(2,2-DIFLUORO-2-(TETRAHYDRO-2H-PYRAN-4-YL)ETHOXY)-N-(PYRIMIDIN-4-YL)ISOQUINOLINE-6-SULFONAMIDE] is 49%.

In the next assay the target is T1, Nav 1.7. In words: Nav 1.7 in vitro PX assay (PatchXpress whole cell voltage clamp). It is filed as cell-based. The settings on record: 293 cells, human Nav1.7, partially inactivated state; read-out: Nav1.7 PX IC50 IP. The procedure:
Nav 1.7 In Vitro PX Assay
293 cells stably transfected with human Nav1.7 were recorded in whole cell voltage clamp mode with the PatchXpress automated electrophysiology system (Molecular Devices, LLC, Sunnyvale, Calif.). Compound effects were measured on a partially inactivated state of the sodium channel. Cells were clamped to a holding potential yielding 20 to 50% inactivation. To elicit sodium current, channels were activated by pulsing to −10 mV for 20 msec. […] A single concentration of test compound was applied to cells for a duration of 3 minutes. Peak sodium current was measured at the end of the compound addition period to determine percent inhibition. Three to five cells were tested per concentration, and IC50 curves were fitted to percent inhibition as a function of concentration.
For `COc1cc(OCC(F)(F)F)ccc1-c1nccc2cc(S(=O)(=O)Nc3ccncn3)ccc12` [Example 362, 1-(2-METHOXY-4-(2,2,2-TRIFLUOROETHOXY)PHENYL)-N-(PYRIMIDIN-4-YL)ISOQUINOLINE-6-SULFONAMIDE], the IC50 turned out to be 1070 nM.
Same read-out and setting: with `Cc1cnc(OC2CCNCC2)c(-c2nccc3cc(S(=O)(=O)Nc4nccs4)ccc23)c1` [Example 378, 1-(5-METHYL-2-(PIPERIDIN-4-YLOXY)PYRIDIN-3-YL)-N-(THIAZOL-2-YL)ISOQUINOLINE-6-SULFONAMIDE] the figure was 2420 nM.
Still for that read-out and setting: the figure for `COc1cc(F)ccc1-c1ncc(C#N)c2cc(S(=O)(=O)Nc3nccs3)ccc12` [Example 399, 4-CYANO-1-(4-FLUORO-2-METHOXYPHENYL)-N-(THIAZOL-2-YL)ISOQUINOLINE-6-SULFONAMIDE] is 682 nM.
Same read-out and setting: with `COc1cc(C(F)(F)F)ccc1-c1ccnc2cc(S(=O)(=O)Nc3ccncn3)ccc12` [Example 279, 4-(2-METHOXY-4-(TRIFLUOROMETHYL)PHENYL)-N-(PYRIMIDIN-4-YL)QUINOLINE-7-SULFONAMIDE] the figure was 580 nM; with `COc1ncc(C)cc1-c1nccc2cc(S(=O)(=O)Nc3nccs3)ccc12` [Example 411, 1-(2-METHOXY-5-METHYLPYRIDIN-3-YL)-N-(THIAZOL-2-YL)ISOQUINOLINE-6-SULFONAMIDE], 685 nM.
For the compound `Cc1cc(Cl)ccc1-c1nccc2cc(S(=O)(=O)Nc3ccncn3)ccc12` [Example 357], the IC50 was determined as 1850 nM.
As to `COc1ccccc1-c1cncc2cc(S(=O)(=O)Nc3ccncn3)ccc12` [Example 287, 4-(2-METHOXYPHENYL)-N-(PYRIMIDIN-4-YL)ISOQUINOLINE-7-SULFONAMIDE HYDROCHLORIDE], the IC50 turned out to be 4150 nM.
The same measure, in the same setting: with `O=S(=O)(Nc1nccs1)c1ccc2c(-c3ccccc3Cl)nccc2c1` [Example 179, 1-(2-CHLOROPHENYL)-N-(THIAZOL-2-YL)ISOQUINOLINE-6-SULFONAMIDE] the figure was 1300 nM; with `COc1cc(C(F)F)c(OC)cc1-c1nccc2cc(S(=O)(=O)Nc3ccncn3)ccc12` [Example 453, 1-(4-(DIFLUOROMETHYL)-2,5-DIMETHOXYPHENYL)-N-(PYRIMIDIN-4-YL)ISOQUINOLINE-6-SULFONAMIDE], 4880 nM.
On the same count and under the same terms, with `COc1cc(C#N)ccc1-c1ncc(F)c2cc(S(=O)(=O)Nc3ncns3)ccc12` [Example 395, 1-(4-CYANO-2-METHOXYPHENYL)-4-FLUORO-N-(1,2,4-THIADIAZOL-5-YL)ISOQUINOLINE-6-SULFONAMIDE] the figure was 761 nM; with `NC(=O)COc1cc(F)ccc1-c1nccc2cc(S(=O)(=O)Nc3nccs3)ccc12` [Example 417, 2-(5-FLUORO-2-(6-(N-(THIAZOL-2-YL)SULFAMOYL)ISOQUINOLIN-1-YL)PHENOXY)ACETAMIDE], 1230 nM; with `COc1cc(-c2ccc(C)nc2)ccc1-c1nccc2cc(S(=O)(=O)Nc3ccncn3)ccc12` [Example 477, 1-(2-METHOXY-4-(6-METHYLPYRIDIN-3-YL)PHENYL)-N-(PYRIMIDIN-4-YL)ISOQUINOLINE-6-SULFONAMIDE], 4040 nM.
On the same count and under the same terms, with `N#CCOc1cc(Cl)ccc1-c1nccc2cc(S(=O)(=O)Nc3ccncn3)ccc12` [Example 376, 1-(4-CHLORO-2-(CYANOMETHOXY)PHENYL)-N-(PYRIMIDIN-4-YL)ISOQUINOLINE-6-SULFONAMIDE 2,2,2-TRIFLUOROACETATE] the figure was 2940 nM.
Turning to `COc1cc(C(F)(F)F)ccc1-c1ccnc2c(C)c(S(=O)(=O)Nc3nccs3)ccc12` [Example 328, 4-(2-METHOXY-4-(TRIFLUOROMETHYL)PHENYL)-8-METHYL-N-(THIAZOL-2-YL)QUINOLINE-7-SULFONAMIDE], the IC50 turned out to be 6870 nM.
On the same count and under the same terms, with `N#Cc1cc(C(F)(F)F)ccc1-c1nccc2cc(S(=O)(=O)Nc3nccs3)ccc12` [Example 386, 1-(2-CYANO-4-(TRIFLUOROMETHYL)PHENYL)-N-(THIAZOL-2-YL)ISOQUINOLINE-6-SULFONAMIDE] the figure was 1390 nM; with `O=S(=O)(Nc1nccs1)c1ccc2c(-c3ccc(F)cc3Oc3ccccn3)nccc2c1` [Example 191, 1-(4-FLUORO-2-(PYRIDIN-2-YLOXY)PHENYL)-N-(THIAZOL-2-YL)ISOQUINOLINE-6-SULFONAMIDE], 13900 nM; with `O=S(=O)(Nc1nccs1)c1ccc2c(-c3cc(F)ccc3OC(F)F)nccc2c1` [Example 413, 1-(2-(DIFLUOROMETHOXY)-5-FLUOROPHENYL)-N-(THIAZOL-2-YL)ISOQUINOLINE-6-SULFONAMIDE], 830 nM.
As for `O=S(=O)(Nc1nccs1)c1ccc2c(-c3ccc(C(F)(F)F)cc3O)ncnc2c1` [Example 533, 4-(2-HYDROXY-4-(TRIFLUOROMETHYL)PHENYL)-N-(THIAZOL-2-YL)QUINAZOLINE-7-SULFONAMIDE], the IC50 was determined as 4090 nM.
On the same count and under the same terms, the figure for `COc1ncc(Cl)cc1-c1ncnc2cc(S(=O)(=O)Nc3nccs3)ccc12` [Example 541, 4-(5-CHLORO-2-METHOXYPYRIDIN-3-YL)-N-(THIAZOL-2-YL)QUINAZOLINE-7-SULFONAMIDE] is 1800 nM.
Same read-out and setting: with `COc1ncc(F)cc1-c1nccc2cc(S(=O)(=O)Nc3nccs3)ccc12` [Example 410, 1-(5-FLUORO-2-METHOXYPYRIDIN-3-YL)-N-(THIAZOL-2-YL)ISOQUINOLINE-6-SULFONAMIDE] the figure was 1670 nM.
Still for that read-out and setting: the figure for `CC(C#N)Oc1cc(F)ccc1-c1nccc2cc(S(=O)(=O)Nc3nccs3)ccc12` (stereo not drawn) [Example 415, 1-(2-(1-CYANOETHOXY)-4-FLUOROPHENYL)-N-(THIAZOL-2-YL)ISOQUINOLINE-6-SULFONAMIDE] is 1070 nM; for `N#CCOc1cc(Cl)ccc1-c1nccc2cc(S(=O)(=O)Nc3ncns3)ccc12` [Example 404, 1-(4-CHLORO-2-(CYANOMETHOXY)PHENYL)-N-(1,2,4-THIADIAZOL-5-YL)ISOQUINOLINE-6-SULFONAMIDE 2,2,2-TRIFLUOROACETATE] it is 428 nM.
Take `COc1cc(-c2c(C)ccnc2F)ccc1-c1nccc2cc(S(=O)(=O)Nc3ccncn3)ccc12` [Example 480, 1-(4-(2-FLUORO-4-METHYLPYRIDIN-3-YL)-2-METHOXYPHENYL)-N-(PYRIMIDIN-4-YL)ISOQUINOLINE-6-SULFONAMIDE]: the IC50 was determined as 2770 nM.
Still for that read-out and setting: the figure for `Cn1cc(-c2cc(F)ccc2-c2nccc3cc(S(=O)(=O)Nc4nccs4)ccc23)cn1` [Example 129, 1-(4-FLUORO-2-(1-METHYL-1H-PYRAZOL-4-YL)PHENYL)-N-(THIAZOL-2-YL)ISOQUINOLINE-6-SULFONAMIDE TRIFLUOROACETATE] is 8000 nM.

As usually defined, the IC50 is the midpoint of a concentration-inhibition curve.
